Assay results published in patent US20180312473A1, “PHENAZINE DERIVATIVES AS ANTIMICROBIAL AGENTS” (priority 2015, published 2018).
In brackets after ≈: the same amount, converted by molar mass. Like-named read-outs stand apart in the source and are kept apart here.

How the values were obtained:
[1] = system: MRSA-1 (methicillin-resistant Staphylococcus aureus clinical isolate); assay: MIC assay (broth microdilution, CLSI); type: cell-based; conditions: read-out: MIC, MRSA-1
[2] = system: MRSA-2 planktonic cells and biofilms; assay: Calgary Biofilm Device (CBD) assay, MBC/MBEC; type: cell-based, Staphylococcus aureus; conditions: for MBC: Staphylococcus aureus, MRSA
[3] = system: MRSA-2 (methicillin-resistant Staphylococcus aureus clinical isolate); assay: MIC assay (broth microdilution, CLSI); type: cell-based; conditions: for MIC: read-out: MIC, MRSA-2
P. aeruginosa (PAO1) = assay: MIC assay (broth microdilution, CLSI); type: cell-based
K. pneumoniae 13883 = assay: MIC assay (broth microdilution, CLSI); type: cell-based, Klebsiella pneumoniae
A. baumannii 19606 = assay: MIC assay (broth microdilution, CLSI); type: cell-based, Acinetobacter baumannii
E. coli UAEC-1 = assay: MIC assay (broth microdilution, CLSI); type: cell-based
MRSA BAA-44 = assay: MIC assay (broth microdilution, CLSI); conditions: Staphylococcus aureus, read-out: MIC, MRSA BAA-44
[4] = system: Staphylococcus epidermidis (ATCC 12228); assay: MIC assay (broth microdilution, CLSI); type: cell-based; conditions: Staphylococcus epidermidis
MRSA BAA-1707 = assay: MIC assay (broth microdilution, CLSI); conditions: Staphylococcus aureus, read-out: MIC, MRSA BAA-1707
human red blood cells = assay: Hemolysis assay with red blood cells; conditions: 200 μM
Experimental: The hemolysis activities of select compounds of the invention were determined. […] The washing was repeated three times with the buffer. In 96-well plate, test compounds were added to the buffer from DMSO stocks. […] The plate was then incubated for 1 hour at 37° C. After incubation, the plate was centrifuged for 5 minutes at 3,500 rpm. Then 80 μL of the supernatant was transferred to another 96-well plate, and the optical density (OD) was read at 405 nm. DMSO served as the negative control (0% hemolysis), while Triton X served as the positive control (100% hemolysis). The percent of hemolysis was calculated as (OD405 of the compound−OD405 of DMSO)/(OD405 of Triton X−OD405 of the buffer).
The washing was repeated three times with the buffer. In 96-well plate, test compounds were added to the buffer from DMSO stocks. […] The plate was then incubated for 1 hour at 37° C. After incubation, the plate was centrifuged for 5 minutes at 3,500 rpm. Then 80 μL of the supernatant was transferred to another 96-well plate and the optical density (OD) was read at 405 nm. DMSO served as our negative control (0% hemolysis) while Triton X served as our positive control (100% hemolysis). The percent of hemolysis was calculated as (OD405 of the test compound−OD405 DMSO)/(OD405 Triton X−OD405 buffer) from three independent experiments.

[5] = system: MRSE (S. epidermidis ATCC 35984) planktonic cells and biofilms; assay: Calgary Biofilm Device (CBD) assay, MBC/MBEC; type: cell-based, Staphylococcus epidermidis; conditions: Staphylococcus epidermidis; Table 8; read-out: MRSE 35984 MBC
[6] = system: Enterococcus faecium (ATCC 700221), VRE; assay: MIC assay (broth microdilution, CLSI); type: cell-based; conditions: Table 7; b lowest concentration tested; read-out: MIC, VRE 700221
[7] = system: VRE (E. faecium ATCC 700221) planktonic cells and biofilms; assay: Calgary Biofilm Device (CBD) assay, MBC/MBEC; type: cell-based, Enterococcus faecium; conditions: Enterococcus; Table 8; c lowest concentration tested; read-out: VRE 700221 MBC
E. faecium 700221 (VRE) = assay: MIC assay with Tiron or metal(II) cation co-treatment; type: cell-based, Enterococcus faecium; conditions: for MIC: Enterococcus faecium, VRE
MRSA-2 = assay: as above; type: cell-based, Staphylococcus aureus; conditions: for MIC: Staphylococcus aureus
S. epidermidis 12228 = assay: as above; type: cell-based, Staphylococcus epidermidis; conditions: for MIC: Staphylococcus epidermidis
[8] = system: Staphylococcus epidermidis (ATCC 35984), MRSE; assay: MIC assay (broth microdilution, CLSI); type: cell-based; conditions: Staphylococcus epidermidis, Table 7; read-out: MIC, MRSE 35984
[9] = E. faecium 700221, + loss, − increase of activity
[10] = MRSA-2, + loss, − increase of activity
[11] = S. epidermidis 12228, + loss, − increase of activity

## Oc1c(Br)cc(Br)c2nc3cc4ccccc4cc3nc12 [Compound 19]
[1]; Staphylococcus aureus, MRSA
  MIC: 12.5 µM (≈ 5.05 µg/mL)
[1]; Table 2B, b lowest concentration tested
  MIC: 12.5 µM (≈ 5.05 µg/mL)
[2]; read-out: MBC, MRSA-2
  MBC: 200 µM (≈ 80.8 µg/mL)
[2]; read-out: MRSA-2 MBC
  MBC: 200 µM (≈ 80.8 µg/mL)
[2]; Table 8, a/b 2-/4-fold range in independent experiments
  MRSA-2 MBC: 200/>200 μM
[3]; Staphylococcus aureus, MRSA
  MIC: > 100 µM
[3]; Table 2B, a midpoint of 2-fold range, * partial growth inhibition at highest concentration
  MIC, MRSA-2: >100* μM
[3]; Table 7, a midpoint of 2-fold range, b lowest concentration tested
  MIC: >100 µM
P. aeruginosa (PAO1); Pseudomonas aeruginosa, PAO1, read-out: PAO1 MIC
  MIC: > 100 µM
K. pneumoniae 13883; Klebsiella pneumoniae, 13883, read-out: K. pneumoniae 13883 MIC
  MIC: > 100 µM
A. baumannii 19606; Acinetobacter baumannii, 19606, read-out: A. baumannii 19606 MIC
  MIC: > 100 µM
E. coli UAEC-1; Escherichia coli, UAEC1, read-out: E. coli UAEC-1 MIC
  MIC: > 100 µM
MRSA BAA-44
  MIC: 75 µM (≈ 30.3 µg/mL)
[4]; ATCC12228, read-out: MIC, S. epidermidis 12228
  MIC: 12.5 µM (≈ 5.05 µg/mL)
[4]; ATCC12228, read-out: MIC, Staphylococcus epidermidis (ATCC 12228)
  MIC: 12.5 µM (≈ 5.05 µg/mL)
MRSA BAA-1707
  MIC: 50 µM (≈ 20.2 µg/mL)
Human red blood cells; 1 h, 37 °C
  % Hemolysis (200 μM): ≤1%
Human red blood cells; red blood cells
  % Hemolysis at 200 μM: <1%
Human red blood cells; Table 8, human red blood cells
  % Hemolysis at 200 μM: ≤1%

## Oc1ccc(Br)c2nc3cc(Br)c(Br)cc3nc12 [Compound 13]
[2]; Table 8, a/b 2-/4-fold range in independent experiments, read-out: MRSA-2 MBC
  MBC: > 200 µM
[3]; Staphylococcus aureus, MRSA, Table 7, a midpoint of 2-fold range, b lowest concentration tested
  MIC: 1.56 µM (≈ 0.675 µg/mL)
[5]
  MBC: > 200 µM
P. aeruginosa (PAO1); Pseudomonas aeruginosa, PAO1; read-out: PAO1 MIC
  MIC: > 100 µM
[6]
  MIC: 6.25 µM (≈ 2.71 µg/mL)
[7]
  MBC: > 200 µM
E. faecium 700221 (VRE); [9]
  Fold Δ (Cu^2+): +64
  Fold Δ (Tiron): n.a. (insignificant changes in MIC values (≤2-fold changes))
E. faecium 700221 (VRE); E. faecium 700221, 200 μM CuSO4, read-out: MIC with Cu^2+
  MIC: 25 µM
E. faecium 700221 (VRE); E. faecium 700221, 1 mM Tiron, read-out: MIC with Tiron
  MIC: 0.39 µM
E. faecium 700221 (VRE); E. faecium 700221, no additive, read-out: MIC
  MIC: 0.39 µM
K. pneumoniae 13883; Klebsiella pneumoniae, 13883; read-out: K. pneumoniae 13883 MIC
  MIC: > 100 µM
A. baumannii 19606; Acinetobacter baumannii, 19606; read-out: A. baumannii 19606 MIC
  MIC: > 100 µM
E. coli UAEC-1; Escherichia coli, UAEC1; read-out: E. coli UAEC-1 MIC
  MIC: > 100 µM
MRSA-2; [10]
  Fold Δ (Cu^2+): +8
  Fold Δ (Fe^2+): +2
  Fold Δ (Tiron): −125
MRSA-2; MRSA-2, 200 μM copper(II), read-out: MIC with Cu^2+
  MIC: > 100 µM
MRSA-2; MRSA-2, 200 μM iron(II), read-out: MIC with Fe^2+
  MIC: 25 µM
MRSA-2; MRSA-2, 1 mM Tiron, read-out: MIC with Tiron
  MIC: 0.1 µM
MRSA-2; MRSA-2, no additive (Table 9), read-out: MIC
  MIC: 12.5 µM
MRSA BAA-44
  MIC: 1.56 µM (≈ 0.675 µg/mL)
[4]; ATCC12228, Table 7, b lowest concentration tested, read-out: MIC, S. epidermidis 12228
  MIC: 2.35 µM (≈ 1.02 µg/mL)
S. epidermidis 12228; [11]
  Fold Δ (Cu^2+): +500
  Fold Δ (Tiron): n.a. (insignificant changes in MIC values (≤2-fold changes))
S. epidermidis 12228; S. epidermidis 12228, 200 μM CuSO4, read-out: MIC with Cu^2+
  MIC: 50 µM
S. epidermidis 12228; S. epidermidis 12228, 1 mM Tiron, read-out: MIC with Tiron
  MIC: 0.1 µM
S. epidermidis 12228; S. epidermidis 12228, no additive, read-out: MIC
  MIC: 0.1 µM
[8]
  MIC: 3.13 µM (≈ 1.35 µg/mL)
MRSA BAA-1707
  MIC: 0.56 µM (≈ 0.242 µg/mL)
Human red blood cells; human, 1 h, pH 7.2
  % Hemolysis at 200 μM: ≤1%
